Measurements published in PMC2247230, “Synthesis of somatostatin by breast cancer cells and their inhibition by exogenous somatostatin and sandostatin” (British Journal of Cancer, 1989).
Like-named read-outs stand apart in the source and are kept apart here.

Tests used:
[1] = tested on: Antiserum to somatostatin-14; experiment: Somatostatin radioimmunoassay, specificity (displacement of 125I-Tyr11 somatostatin-14); format: binding; conditions: 20 h at 4 C, charcoal/dextran separation; for sensitivity of the RIA to the substance (displacement of label): triplicate
[2] = rat kidney homogenates, ref Pless et al., 1986, cited from earlier work
Text: In the presence of fe ...

[3] = read-out RIA
[4] = tested on: MDA-MB-436 cells
Text: (§1) Somatostatin is a neuroendocrine hormone which inhibits not only exocrine and endocrine secretion, but also mito- genesis. Somatostatin-synthesising cells have a widespread anatomical distribution, being found in regions of the central nervous system and gastrointestinal tract. […] There have been few studies of the presence of SLI in breast cancer specimens. […] Inhibition of tumour growth may be indirect, through inhibition of endocrine secretion. […] Correspondence: J. Nelson. Received 5 October 1988, and in revised form, 9 January 1989. Materials and methods Tissue culture All media and fetal calf serum (FCS) were obtained from Flow Laboratories, Rickmansworth, UK. The same batch of serum was used throughout. […] Cell proliferation assays To assess the effects of somatostatin and Sandostatin, 5 x 10^4 cells were inoculated in 24-well tissue culture plates (Costar, Northumbria Biologicals Ltd, Cramlington, UK)- .After one day, plating efficiency was determined in a repre- sentative set of wells (cell counts, day 0) by trypsinisation and electronic cell counting (Coulter counter model ZBI, Coulter Electronics, Luton, UK). […] Thereafter cells were removed and counted at the times indicated.

[5] = tested on: MCF-7 cells; experiment: Cell proliferation assay (electronic cell counting), MCF-7; format: cell-based, human; conditions: 500 ng ml-1, 6 days continuous exposure without medium changes, MEM plus 5% FCS (Figure 4); mean of 3-5 wells
Text: as §1

[6] = tested on: ZR-75-1 cells; experiment: Cell proliferation assay (electronic cell counting), ZR-75-1; format: cell-based, human
Text: Somatostatin is a neuroendocrine hormone which inhibits not only exocrine and endocrine secretion, but also mito- genesis. Somatostatin-synthesising cells have a widespread anatomical distribution, being found in regions of the central nervous system and gastrointestinal tract. […] There have been few studies of the presence of SLI in breast cancer specimens. […] Inhibition of tumour growth may be indirect, through inhibition of endocrine secretion. […] Correspondence: J. Nelson. Received 5 October 1988, and in revised form, 9 January 1989. Materials and methods Tissue culture All media and fetal calf serum (FCS) were obtained from Flow Laboratories, Rickmansworth, UK. The same batch of serum was used throughout. MCF-7 cells, a gift from Dr C.R. Green, Liverpool University, were routinely cultured in modified Eagle's mini- mal essential medium (MEM) supplemented with non- essential amino acids, sodium pyruvate (1 mM) and 5% v/v FCS. ZR-75-1 and MDA-MB-436 cells were obtained from the American Tissue Culture Collection. ZR-75-1 cells were cultured in RPMI 1640 medium containing 5% FCS. MDA- MB-436 cells were cultured in Liebowitz 15 medium contain- ing 10% FCS. All media contained Phenol Red and were supplemented with penicillin (1OOIUml-1) and streptomycin (100 ug ml- 1). Cell proliferation assays To assess the effects of somatostatin and Sandostatin, 5 x 10^4 cells were inoculated in 24-well tissue culture plates (Costar, Northumbria Biologicals Ltd, Cramlington, UK)- .After one day, plating efficiency was determined in a repre- sentative set of wells (cell counts, day 0) by trypsinisation and electronic cell counting (Coulter counter model ZBI, Coulter Electronics, Luton, UK). At this time medium was removed from remaining wells and replaced with fresh medium (control) or medium containing peptide (treatment) as indicated. Control and treatment media were either unchanged or changed daily during the course of the experi- ments, or control and treatment media were removed after one day exposure (i.e. from day 0 to day 1) and replaced by control medium. Thereafter cells were removed and counted at the times indicated.

leupeptin
sensitivity of the RIA to the substance (displacement of label) ([1]; 2,000 fmol per tube): insensitive

bacitracin
sensitivity of the RIA to the substance (displacement of label) ([1]; 1,000 fmol per tube): insensitive

EGF
sensitivity of the RIA to the substance (displacement of label) ([1]; 1,000 fmol per tube): insensitive

C[C@H](N)C(=O)NCC(=O)N[C@H]1CSSC[C@@H](C(=O)O)NC(=O)[C@H](CO)NC(=O)[C@H]([C@@H](C)O)NC(=O)[C@H](Cc2ccccc2)NC(=O)[C@H]([C@@H](C)O)NC(=O)[C@H](CCCCN)NC(=O)[C@H](Cc2c[nH]c3ccccc23)NC(=O)[C@H](Cc2ccccc2)NC(=O)[C@H](Cc2ccccc2)NC(=O)[C@H](CC(N)=O)NC(=O)[C@H](CCCCN)NC1=O [somatostatin]
remaining of starting levels after degradation ([2]; within 1 h): < 25%
exogenous somatostatin remaining, as measured by RIA ([3]; after two days in 5% FCS with or without cells): undetectable
exogenous somatostatin remaining, as measured by RIA ([3]; in the presence of 5% FCS alone (no cells), after one day incubation): < 50%
exogenous somatostatin remaining, as measured by RIA ([3]; in the presence of cells and 5% FCS, RPMI 1640, ZR-75-1 cells, 500 ng ml-1, after one day incubation): < 20%
cytotoxic effects in serum-free conditions ([4]; serum-free conditions (results not shown)): no cytotoxic effects

Sandostatin
effect of continuous exposure on growth (final cell numbers) [5]: inhibition of growth
degradation by homogenate ([2]; up to 20h): virtually unaffected
effect of one day exposure followed by return to control medium on cell proliferation ([6]; 500 ng ml-1, 5% FCS, exposure day 0 to day 1, then control medium (Figures 1c, 2b)): much less effective in inhibiting cell proliferation than a continuous exposure
inhibition of ZR-75-1 cell proliferation compared with relevant control populations ([6]; continuous exposure to single or repeated doses of 500 ng ml-1, in the presence of FCS, day 6 (Figures 1a, b and 2a)): > 3 fold
influence of insulin on the inhibitory effect ([6]; in the presence of insulin, 5% FCS (results not shown)): not more pronounced in the presence of insulin
concentration giving consistent inhibition of growth ([6]; range 10-500 ng ml-1 tested, without medium changes): 500 ng/mL
lowest concentration at which inhibition was occasionally observed ([6]; range 10-500 ng ml-1 tested, without medium changes, inhibition at low concentrations variable): 25 ng ml -1
effect of continuous exposure on growth (final cell numbers) ([4]; 500 ng ml-1, 6 days continuous exposure without medium changes, L-15 plus 10% FCS (Figure 4), mean of 3-5 wells): inhibition of growth
sensitivity of the RIA to the substance (displacement of label) ([1]; 500 fmol per tube): insensitive

somatostatin-28
displacement of label in the RIA ([1]; compared with somatostatin-14): displacement of label was found with somatostatin-28 at higher molarities

B1: prolactin (protein, UniProt P01236 29-227, looked up)
Prolactin: LPICPGGAARCQVTLRDLFDRAVVLSHYIHNLSSEMFSEFDKRYTHGRGFITKAINSCHTSSLATPEDKEQAQQMNQKDFLSLIVSILRSWNEPLYHLVTEVRGMQEAPEAILSKAVEIEEQTKRLLEGMELIVSQVHPETKENEIYPVWSGLPSLQMADEESRLSAYYNLLHCLRRDSHKIDNYLKLLKCRIIHNNNC
notes: substance tested for cross-reaction in the somatostatin RIA
sensitivity of the RIA to the substance (displacement of label) ([1]; 2,000 fmol per tube): insensitive
